From EP0028305A1, “Diaryl compounds and pharmaceutical formulations containing them” (THE WELLCOME FOUNDATION LIMITED, priority 1979, dated 1981)
Where a name gives a salt, the structure may show the parent alone. Read-outs that look alike come from different tables or passages of the source.

What was measured:
virus [1] = experiment: plaque reduction (PR) test; assay type: cell-based; settings: read-out: PR(ED50/µM)
Description: (§1) Activity may be detected by the plaque inhibition (PI) test and measured by the plaque reduction (PR) test. Both assays involve the formation of a monolayer cell culture in a petri dish followed by infection with a virus suspension, and then overlaying the culture with nutrient agarose in the form of a gel. This gel ensures that there is no spread of virus throughout the culture and thus areas of localised cell destruction or plaques are formed.
Detectable activity is measured with the plaque reduction assay. A range of concentrations of compounds of known molarity are incorporated in the nutrient agarose overlay. Plaque suppression is proportional to compound concentration. Plaque numbers are expressed as percentages of a control, and a dose response curve may be drawn. From this curve 50% of the effective dose (ED50) may be estimated.

virus [2] = experiment: intranasal administration, simulation in vitro (plaque formation, compound applied to petri dish lid); assay type: cell-based; settings: lug dissolved in ethanol, applied to lids of petri dishes, ethanol evaporated; compound penetrated the agarose layer
From the text: as §1
In the plaque inhibition test a filter paper disc which holds 0.01 ml when impregnated with a solution of a compound is placed on top of the agarose gel. The compound may then diffuse throughout the gel so that its greatest concentration will be around the disc and its lowest concentration towards the periphery of the petri dish. The efficacy of the compound may be detected by observing the zone of inhibition of plaque formation.
Petri dishes were prepared, as for the plaque inhibition test and the confluer sheet of cells was covered with a layer of agarose gel. The compound, of Example 12 (lug) was dissolved in ethanol, and applied to the lids of the petri dishes. When the ethanol had evaporated, leaving the compound spread over the inside of the lids, these were replaced on the petri dishes.

[3] = plaque reduction assay, compound incorporated in nutrient agarose overlay
[4] = second value printed in parentheses in the same cell, meaning not explained

Structure (SMILES) | EC50 (virus [1]; [3]) | EC50 (virus [1]; [4]) | inhibition of plaque formation (virus [2])
Clc1ccc(CNc2ccccc2)cc1Cl [Example 1, N-3,4-dichlorobenzylaniline hydrochloride] | 0.17 µM |  | 
O=[N+]([O-])c1ccccc1OCc1ccc(Cl)cc1 [Example 2, 4-chlorobenzyl 2-nitrophenyl ether] | 1.2 µM |  | 
CCc1ccc(OCc2ccc(Cl)cc2)cc1 [Example 3, 4-Chlorobenzyl 4-ethylphenyl ether] | 0.72 µM |  | 
CC(C)(C)c1cccc(OCc2ccc(Cl)cc2)c1 [Example 4, 4-Chlorobenzyl 3-t-butylphenyl ether] | 1.9 µM | 5 µM | 
Clc1ccc(COc2ccc(Cl)c(Cl)c2)cc1Cl [Example 5, 3,4-Dichlorobenzyl 3,4-dichlorophenyl ether] | 0.47 µM |  | 
FC(F)(F)c1cccc(OCc2ccccc2)c1 [Example 6, Benzyl 3-trifluoromethylphenyl ether] | 0.66 µM | 1.7 µM | 
N#Cc1ccc(OCc2ccc(Cl)cc2)cc1 [Example 7, 4-Chlorobenzyl 4-cyanophenyl ether] | 0.22 µM |  | 
Cc1ccc(COc2ccc(C)cc2)cc1 [Example 8, 4-Methylbenzyl 4-methylphenyl ether] | 0.56 µM |  | 
O=C(O)c1ccc(OCc2ccc(Cl)cc2)cc1 [Example 9, 4-Chlorobenzyl 4-carboxyphenyl ether] | 1.6 µM |  | 
Clc1cc(COc2ccccc2)cc(Cl)c1Cl [Example 10, 3,4,5-Trichlorobenzyl phenyl ether] | 1.6 µM |  | 
Clc1ccc(COc2ccc(Cl)c(Cl)c2)cc1 [Example 11, 4-Chlorobenzyl 3,4-dichlorophenyl ether] | 0.33 µM |  | 
Clc1ccc(CCCc2ccccc2)cc1Cl [Example 12, 1-(3,4-dichlorophenyl)-3-phenylpropane] | 0.068 µM |  | total inhibition
OC(CCc1ccc(Cl)cc1)c1ccc(Cl)cc1 (stereo not drawn) [Example 13, 1,3-bis-(4-chlorophenyl)propan-1-ol] | 1.3 µM |  | 
OC(CCc1ccc(Cl)c(Cl)c1)c1ccccc1 (stereo not drawn) [Example 14, 3-(3,4-dichlorophenyl)-1-phenylpropan-1-ol] | 0.66 µM |  | 
O=C(CCc1ccc(Cl)c(Cl)c1)c1ccccc1 [Example 15, 3-(3,4-dichlorophenyl)-1-phenylpropan-1-one] | 0.235 µM |  | 
Clc1ccc(CC=Cc2ccccc2)cc1Cl [Example 16, 3-(3,4-dichlorophenyl)-1-phenylpropene] | 0.19 µM |  | 
OC(C=Cc1ccc(Cl)c(Cl)c1)c1ccccc1 (stereo not drawn) [Example 17, 3-(3,4-dichlorophenyl)-l-phenylprop-2-en-l-ol] | 1.2 µM |  | 
OC(C=Cc1ccc(Cl)cc1)c1ccc(Cl)cc1 (stereo not drawn) [Example 18, 1,3-bis-(4-chlorophenyl)prop-2-en-1-ol] | 1.35 µM |  | 
OC(COc1ccc(Cl)cc1)c1ccc(Cl)cc1 (stereo not drawn) [Example 19, 2-(4-chlorophenoxy)-1-(4-chlorophenyl)ethanol] | 1.5 µM |  | 
OC(COc1ccc(Cl)c(Cl)c1)c1ccccc1 (stereo not drawn) [Example 20, 2-(3,4-dichloro^phenoxy)-l-phenylethanol] | 2.5 µM |  | 
NC(=S)c1ccc(OCc2ccc(Cl)cc2)cc1 [Example 21, 4-(4-chlorobenzyloxy)benzenecarbothioamide] | 0.6 µM |  | 
NC(=O)c1ccc(OCc2ccc(Cl)cc2)cc1 [Example 22, 4-(4-chlorobenzyloxy)benzamide] | 0.43 µM |  | 
OCc1cccc(OCc2ccc(Cl)cc2)c1 [Example 23, 4-chlorobenzyl 3-hydroxymethylphenyl ether] | 0.53 µM |  | 
OC(CNc1ccc(Cl)cc1)c1ccc(Cl)cc1 (stereo not drawn) [Example 24, 2-(4-chloroanilino)-1-(4-chlorophenyl)ethanol] | 3 µM |  | 
